pIC50: −log10 of the molar value.
Experiments:
[1] = AUC in human at 10 to 80 mg, po QD after 24 hrs; type: ADME, organism-based; conditions: in vivo
[2] = clinical; conditions: human, in vivo, po
Description: Drug concentration at steady state in human at 10 to 80 mg, po QD after 24 hrs

[3] = biological target: T1, ATP-binding cassette sub-family C member 4 (Homo sapiens, UniProt O15439); experiment: Inhibition of human MRP4 overexpressed in Sf9 cell membrane vesicles assessed as uptake of [3H]-estradiol-17beta-D-glucuronide in presence of ATP and GSH measured after 20 mins by membrane vesicle transport assay; type: ADME, cell-based
T1 sequence (O15439 whole entry): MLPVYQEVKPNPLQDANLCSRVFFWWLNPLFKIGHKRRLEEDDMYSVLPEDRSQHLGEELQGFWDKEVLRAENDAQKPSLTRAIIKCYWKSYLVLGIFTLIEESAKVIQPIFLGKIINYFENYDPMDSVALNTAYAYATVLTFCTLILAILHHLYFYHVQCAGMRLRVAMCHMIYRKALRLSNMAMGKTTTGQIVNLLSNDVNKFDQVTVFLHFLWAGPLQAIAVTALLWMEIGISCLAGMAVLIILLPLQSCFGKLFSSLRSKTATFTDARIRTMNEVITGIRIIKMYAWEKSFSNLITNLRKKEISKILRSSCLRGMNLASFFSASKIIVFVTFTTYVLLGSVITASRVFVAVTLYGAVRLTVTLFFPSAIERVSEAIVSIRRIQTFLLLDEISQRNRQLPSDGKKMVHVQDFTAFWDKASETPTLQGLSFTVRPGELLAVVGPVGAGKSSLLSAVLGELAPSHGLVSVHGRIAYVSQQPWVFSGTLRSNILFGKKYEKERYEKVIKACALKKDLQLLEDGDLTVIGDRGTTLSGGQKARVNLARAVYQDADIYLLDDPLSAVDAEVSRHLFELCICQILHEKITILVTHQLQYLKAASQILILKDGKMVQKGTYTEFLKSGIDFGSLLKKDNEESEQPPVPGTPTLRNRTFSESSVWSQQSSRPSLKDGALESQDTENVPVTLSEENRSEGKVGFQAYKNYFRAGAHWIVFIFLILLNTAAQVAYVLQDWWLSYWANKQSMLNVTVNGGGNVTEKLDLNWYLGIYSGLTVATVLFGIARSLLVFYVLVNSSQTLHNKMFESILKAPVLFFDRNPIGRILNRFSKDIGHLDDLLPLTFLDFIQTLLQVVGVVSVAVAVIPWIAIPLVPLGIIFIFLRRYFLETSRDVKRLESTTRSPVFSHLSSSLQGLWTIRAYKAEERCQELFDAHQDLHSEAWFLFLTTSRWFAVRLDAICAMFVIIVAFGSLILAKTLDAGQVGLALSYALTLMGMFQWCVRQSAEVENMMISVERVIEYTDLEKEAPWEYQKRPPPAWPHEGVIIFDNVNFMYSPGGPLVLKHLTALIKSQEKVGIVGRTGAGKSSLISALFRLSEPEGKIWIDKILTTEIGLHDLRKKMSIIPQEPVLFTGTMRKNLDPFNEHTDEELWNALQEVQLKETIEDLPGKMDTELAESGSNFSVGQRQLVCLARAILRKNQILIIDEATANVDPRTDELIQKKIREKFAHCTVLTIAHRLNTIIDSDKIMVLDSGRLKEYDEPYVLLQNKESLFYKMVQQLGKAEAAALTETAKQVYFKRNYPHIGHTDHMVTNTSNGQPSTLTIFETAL

[4] = biological target: ATP-binding cassette sub-family C member 2 (Homo sapiens, UniProt Q92887); experiment: Inhibition of human MRP2 overexpressed in Sf9 cell membrane vesicles assessed as uptake of [3H]-estradiol-17beta-D-glucuronide in presence of ATP and GSH measured after 20 mins by membrane vesicle transport assay
Sequence of ATP-binding cassette sub-family C member 2 (Q92887 whole entry): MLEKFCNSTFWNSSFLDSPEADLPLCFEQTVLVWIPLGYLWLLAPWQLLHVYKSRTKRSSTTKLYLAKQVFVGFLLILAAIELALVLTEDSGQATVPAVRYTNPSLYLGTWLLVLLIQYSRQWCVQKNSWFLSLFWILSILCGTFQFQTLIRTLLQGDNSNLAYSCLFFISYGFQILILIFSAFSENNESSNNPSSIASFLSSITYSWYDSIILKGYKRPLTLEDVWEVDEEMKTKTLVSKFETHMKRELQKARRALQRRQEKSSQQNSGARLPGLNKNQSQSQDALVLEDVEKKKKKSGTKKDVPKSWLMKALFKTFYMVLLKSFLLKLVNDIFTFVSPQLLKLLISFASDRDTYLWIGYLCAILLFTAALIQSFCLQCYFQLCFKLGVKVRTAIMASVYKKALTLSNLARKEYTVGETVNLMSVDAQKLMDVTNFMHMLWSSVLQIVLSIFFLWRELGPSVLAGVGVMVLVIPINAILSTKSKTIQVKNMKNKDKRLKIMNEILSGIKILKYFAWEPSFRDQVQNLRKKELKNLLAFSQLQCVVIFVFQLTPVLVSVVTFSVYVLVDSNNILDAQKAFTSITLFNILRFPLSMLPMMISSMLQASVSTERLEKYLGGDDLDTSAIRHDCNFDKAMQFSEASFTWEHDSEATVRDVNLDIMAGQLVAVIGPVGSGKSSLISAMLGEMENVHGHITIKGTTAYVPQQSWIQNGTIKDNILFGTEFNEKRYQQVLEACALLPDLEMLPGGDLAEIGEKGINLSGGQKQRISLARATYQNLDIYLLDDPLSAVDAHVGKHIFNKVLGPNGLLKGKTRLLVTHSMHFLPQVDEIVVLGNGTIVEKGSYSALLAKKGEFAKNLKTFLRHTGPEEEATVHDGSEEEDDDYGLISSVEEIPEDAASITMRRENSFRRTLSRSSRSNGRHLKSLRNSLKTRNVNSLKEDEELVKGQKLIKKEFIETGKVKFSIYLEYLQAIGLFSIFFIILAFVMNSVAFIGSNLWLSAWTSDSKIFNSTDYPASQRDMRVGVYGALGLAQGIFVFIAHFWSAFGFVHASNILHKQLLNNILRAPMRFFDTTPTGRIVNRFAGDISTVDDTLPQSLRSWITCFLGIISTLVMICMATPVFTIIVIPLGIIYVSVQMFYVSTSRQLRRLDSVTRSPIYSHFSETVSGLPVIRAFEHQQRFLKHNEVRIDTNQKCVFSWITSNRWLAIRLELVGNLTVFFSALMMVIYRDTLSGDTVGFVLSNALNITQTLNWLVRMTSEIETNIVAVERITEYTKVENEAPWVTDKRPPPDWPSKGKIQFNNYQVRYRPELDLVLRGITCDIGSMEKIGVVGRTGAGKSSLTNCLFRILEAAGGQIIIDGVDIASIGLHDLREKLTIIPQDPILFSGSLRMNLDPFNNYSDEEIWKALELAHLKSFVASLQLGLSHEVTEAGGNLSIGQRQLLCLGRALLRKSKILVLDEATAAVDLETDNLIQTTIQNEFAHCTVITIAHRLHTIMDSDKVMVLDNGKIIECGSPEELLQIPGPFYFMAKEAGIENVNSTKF

[5] = biological target: ATP-binding cassette sub-family C member 3 (Homo sapiens, UniProt O15438); experiment: Inhibition of human MRP3 overexpressed in Sf9 insect cell membrane vesicles assessed as uptake of [3H]-estradiol-17beta-D-glucuronide in presence of ATP and GSH measured after 10 mins by membrane vesicle transport assay; type: ADME, cell-based
Sequence of ATP-binding cassette sub-family C member 3 (O15438 whole entry): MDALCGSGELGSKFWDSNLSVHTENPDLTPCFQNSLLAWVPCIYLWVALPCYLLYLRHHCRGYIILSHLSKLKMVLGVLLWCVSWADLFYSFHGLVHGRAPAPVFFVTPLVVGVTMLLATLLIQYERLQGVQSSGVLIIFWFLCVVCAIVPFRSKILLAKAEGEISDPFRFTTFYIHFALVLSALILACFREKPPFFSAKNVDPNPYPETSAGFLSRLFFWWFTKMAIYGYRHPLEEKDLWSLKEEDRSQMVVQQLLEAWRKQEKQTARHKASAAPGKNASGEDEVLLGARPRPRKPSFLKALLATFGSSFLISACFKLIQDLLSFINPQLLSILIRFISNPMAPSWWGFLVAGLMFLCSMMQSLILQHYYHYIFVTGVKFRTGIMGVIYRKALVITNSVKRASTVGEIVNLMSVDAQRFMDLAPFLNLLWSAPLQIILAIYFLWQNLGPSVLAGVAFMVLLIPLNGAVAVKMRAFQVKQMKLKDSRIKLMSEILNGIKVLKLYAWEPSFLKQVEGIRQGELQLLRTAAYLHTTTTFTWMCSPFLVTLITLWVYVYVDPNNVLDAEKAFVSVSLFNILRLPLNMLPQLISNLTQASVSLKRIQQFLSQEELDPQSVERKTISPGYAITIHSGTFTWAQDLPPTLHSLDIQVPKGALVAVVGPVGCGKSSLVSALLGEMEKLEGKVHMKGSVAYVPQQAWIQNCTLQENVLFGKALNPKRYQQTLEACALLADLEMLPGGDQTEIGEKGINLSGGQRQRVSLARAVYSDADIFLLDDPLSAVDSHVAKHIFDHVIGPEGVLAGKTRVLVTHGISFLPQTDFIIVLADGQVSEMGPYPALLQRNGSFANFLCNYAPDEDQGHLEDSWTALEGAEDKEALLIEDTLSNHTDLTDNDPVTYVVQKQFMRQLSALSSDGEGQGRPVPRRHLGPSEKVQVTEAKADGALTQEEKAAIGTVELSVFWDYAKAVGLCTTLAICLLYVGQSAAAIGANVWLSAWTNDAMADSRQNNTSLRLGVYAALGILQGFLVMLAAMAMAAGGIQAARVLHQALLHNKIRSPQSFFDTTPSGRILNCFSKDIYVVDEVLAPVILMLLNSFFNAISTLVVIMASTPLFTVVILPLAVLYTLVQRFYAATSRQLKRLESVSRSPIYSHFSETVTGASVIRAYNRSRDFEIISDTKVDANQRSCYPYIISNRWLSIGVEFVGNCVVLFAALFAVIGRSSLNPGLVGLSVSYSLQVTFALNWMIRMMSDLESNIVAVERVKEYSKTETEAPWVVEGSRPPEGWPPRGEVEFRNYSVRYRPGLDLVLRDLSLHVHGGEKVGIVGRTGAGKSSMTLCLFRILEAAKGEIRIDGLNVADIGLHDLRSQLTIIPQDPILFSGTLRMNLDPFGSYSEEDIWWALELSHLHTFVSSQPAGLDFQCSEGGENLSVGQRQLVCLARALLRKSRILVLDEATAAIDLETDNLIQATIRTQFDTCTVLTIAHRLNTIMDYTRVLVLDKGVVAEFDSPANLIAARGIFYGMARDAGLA

[6] = biological target: Bile salt export pump (Homo sapiens, UniProt O95342); experiment: Inhibition of human BSEP overexpressed in Sf9 cell membrane vesicles assessed as uptake of [3H]-taurocholate in presence of ATP measured after 15 to 20 mins by membrane vesicle transport assay; type: ADME, cell-based
Sequence of Bile salt export pump (O95342 whole entry): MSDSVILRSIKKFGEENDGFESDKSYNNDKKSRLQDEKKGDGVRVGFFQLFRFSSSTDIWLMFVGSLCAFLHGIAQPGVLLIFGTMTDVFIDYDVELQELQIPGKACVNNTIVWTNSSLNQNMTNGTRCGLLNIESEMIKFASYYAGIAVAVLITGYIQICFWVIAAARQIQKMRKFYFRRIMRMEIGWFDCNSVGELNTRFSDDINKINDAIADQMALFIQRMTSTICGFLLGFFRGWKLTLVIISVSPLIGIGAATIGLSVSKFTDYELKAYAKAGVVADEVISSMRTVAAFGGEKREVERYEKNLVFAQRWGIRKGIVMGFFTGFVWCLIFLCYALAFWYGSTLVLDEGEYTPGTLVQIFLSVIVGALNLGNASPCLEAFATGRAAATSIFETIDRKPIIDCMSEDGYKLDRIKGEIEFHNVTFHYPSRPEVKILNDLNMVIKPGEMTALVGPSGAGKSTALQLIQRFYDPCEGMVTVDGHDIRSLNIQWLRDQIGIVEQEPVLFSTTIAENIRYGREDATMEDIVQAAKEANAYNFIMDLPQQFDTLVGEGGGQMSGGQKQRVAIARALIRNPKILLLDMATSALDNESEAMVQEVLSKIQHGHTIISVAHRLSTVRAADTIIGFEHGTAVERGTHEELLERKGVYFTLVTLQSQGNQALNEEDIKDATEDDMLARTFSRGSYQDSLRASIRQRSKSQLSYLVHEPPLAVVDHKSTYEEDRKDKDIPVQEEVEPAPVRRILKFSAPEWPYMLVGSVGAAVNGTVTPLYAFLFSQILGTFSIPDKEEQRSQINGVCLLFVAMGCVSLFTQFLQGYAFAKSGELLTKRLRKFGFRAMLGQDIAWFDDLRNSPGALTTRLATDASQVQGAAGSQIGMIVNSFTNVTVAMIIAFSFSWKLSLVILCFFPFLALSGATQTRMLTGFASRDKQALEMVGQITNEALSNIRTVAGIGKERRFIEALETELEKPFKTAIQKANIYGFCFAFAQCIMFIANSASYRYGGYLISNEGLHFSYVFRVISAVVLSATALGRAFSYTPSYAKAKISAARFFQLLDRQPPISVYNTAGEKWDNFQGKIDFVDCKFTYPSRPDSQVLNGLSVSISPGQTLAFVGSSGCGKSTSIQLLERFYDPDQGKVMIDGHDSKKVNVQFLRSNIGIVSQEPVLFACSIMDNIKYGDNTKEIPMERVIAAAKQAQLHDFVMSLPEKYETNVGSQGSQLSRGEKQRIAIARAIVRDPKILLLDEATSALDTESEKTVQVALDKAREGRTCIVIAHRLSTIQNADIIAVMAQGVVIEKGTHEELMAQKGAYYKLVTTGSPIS

[7] = AUC in human at 60 to 250 mg, po QD after 12 hrs; type: ADME, organism-based; conditions: in vivo
[8] = Drug concentration at steady state in human at 60 to 250 mg, po QD after 12 hrs; type: ADME, organism-based; conditions: in vivo, read-out: Css
[9] = Ratio of drug concentration at steady state in human at 60 to 250 mg, po QD after 12 hrs to IC50 for human BSEP overexpressed in Sf9 insect cells; type: ADME, organism-based; conditions: in vivo
[10] = clinical; conditions: human, in vivo, po; remark: listed apart in the source
[11] = tested on: Homo sapiens; experiment: Drug concentration at steady state in human at 0.01 to 0.04 mg/kg, po after 24 hrs; type: ADME, organism-based; conditions: in vivo
[12] = AUC in human at 0.5 to 4 mg, po BID/TID/QID after 6 hrs; type: ADME, organism-based; conditions: in vivo
[13] = Ratio of drug concentration at steady state in human at 0.5 to 4 mg, po BID/TID/QID after 6 hrs to IC50 for human MRP2 overexpressed in Sf9 insect cells; type: ADME, organism-based; conditions: in vivo
[14] = Ratio of drug concentration at steady state in human at 0.5 to 4 mg, po BID/TID/QID after 6 hrs to IC50 for human MRP4 overexpressed in Sf9 insect cells; type: ADME, organism-based; conditions: in vivo
[15] = Ratio of drug concentration at steady state in human at 0.5 to 4 mg, po BID/TID/QID after 6 hrs to IC50 for human MRP3 overexpressed in Sf9 insect cells; type: ADME, organism-based; conditions: in vivo
[16] = Ratio of drug concentration at steady state in human at 0.5 to 4 mg, po BID/TID/QID after 6 hrs to IC50 for human BSEP overexpressed in Sf9 insect cells; type: ADME, organism-based; conditions: in vivo
[17] = Drug concentration at steady state in human at 0.5 to 4 mg, po BID/TID/QID after 6 hrs; type: ADME, organism-based; conditions: in vivo, read-out: Css
[18] = Drug concentration at steady state in human at 5 to 80 mg, po QD after 24 hrs; type: ADME, organism-based; conditions: in vivo, read-out: Css
[19] = AUC in human at 5 to 80 mg, po QD after 24 hrs; type: ADME, organism-based; conditions: in vivo
[20] = Ratio of drug concentration at steady state in human at 0.075 to 0.26 mg/kg, po after 24 hrs to IC50 for human MRP2 overexpressed in Sf9 insect cells; type: ADME, organism-based; conditions: in vivo
[21] = AUC in human at 0.075 to 0.26 mg/kg, po after 24 hrs; type: ADME, organism-based; conditions: in vivo
[22] = Ratio of drug concentration at steady state in human at 0.075 to 0.26 mg/kg, po after 24 hrs to IC50 for human BSEP overexpressed in Sf9 insect cells; type: ADME, organism-based; conditions: in vivo
[23] = tested on: Homo sapiens; experiment: Drug concentration at steady state in human at 0.075 to 0.26 mg/kg, po after 24 hrs; type: ADME, organism-based; conditions: in vivo

SMILES	pIC50 [3]	pIC50 [4]	pIC50 [5]	pIC50 [6]	other results
CC[C@H](C)C(=O)O[C@H]1C[C@@H](C)C=C2C=C[C@H](C)[C@H](CC[C@@H]3C[C@@H](O)CC(=O)O3)[C@H]21 [LOVASTATIN]	< 3.88	< 3.88	< 3.88	4.71	AUC at 24 h [1]: 0.238 µM·h; concentration at 24 h [2]: 10 nM
CN1CCN(C2=Nc3ccccc3Oc3ccc(Cl)cc32)CC1.O=C(O)CCC(=O)O [LOXAPINE SUCCINATE]	< 3.88	< 3.88	< 3.88	4.11	AUC at 12 h [7]: 0.369 µM·h; concentration at 12 h [8]: 31 nM; Ratio [9]: 0.0004
Cc1ncc2n1-c1ccc(Cl)cc1C(c1ccccc1F)=NC2 [MIDAZOLAM]	–	–	–	–	AUC at 24 h [10]: 0.369 µM·h; Css [11]: 15 nM
CCOc1cc(CC(=O)N[C@@H](CC(C)C)c2ccccc2N2CCCCC2)ccc1C(=O)O [REPAGLINIDE]	4.27	4.14	4.78	4.66	AUC at 6 h [12]: 0.099 µM·h; Ratio [13]: 0; Ratio [14]: 0; Ratio [15]: 0.001; Ratio [16]: 0.00075; concentration at 6 h [17]: 16 nM
CCC(C)(C)C(=O)O[C@H]1C[C@@H](C)C=C2C=C[C@H](C)[C@H](CC[C@@H]3C[C@@H](O)CC(=O)O3)[C@H]21 [SIMVASTATIN]	< 3.88	< 3.88	< 3.88	–	concentration at 24 h [18]: 9 nM; AUC at 24 h [19]: 0.212 µM·h
C=CC[C@@H]1/C=C(\C)C[C@H](C)C[C@H](OC)[C@H]2O[C@@](O)(C(=O)C(=O)N3CCCC[C@H]3C(=O)O[C@H](/C(C)=C/[C@@H]3CC[C@@H](O)[C@H](OC)C3)[C@H](C)[C@@H](O)CC1=O)[C@H](C)C[C@@H]2OC [TACROLIMUS ANHYDROUS]	< 3.88	4.39	< 3.88	5.14	Ratio [20]: 0; AUC at 24 h [21]: 0.252 µM·h; Ratio [22]: 0.001; Css [23]: 11 nM
